Laboratory results: the NIST ThermoML archive (doi:10.1021/je700297c)
± gives the expanded uncertainty stated by the source.

Assay: activity coefficient (dimensionless); of the first substance listed, at infinite dilution; xn = mol fraction of the nth substance listed
Details: Liquid, Chromatography, x1 = 0

Row | Structure (SMILES) | activity coefficient (323 K) | activity coefficient (298 K) | activity coefficient (303 K)
1 | Cc1ccccc1 [toluene] + CCCC[n+]1ccn(C)c1.O=S(=O)([N-]S(=O)(=O)C(F)(F)F)C(F)(F)F | 1.2 ± 0.1 | – | –
2 | Cc1ccccc1 [toluene] + CCCCn1cc[n+](C)c1.F[B-](F)(F)F | 2.4 ± 0.2 | 2.5 ± 0.2 | –
3 | Cc1ccccc1 [toluene] + C[n+]1ccn(CCCC#N)c1.N#CN=C=[N-] | 4 ± 0.3 | – | 4.3 ± 0.3
4 | Cc1ccccc1 [toluene] + C[n+]1ccn(CCCC#N)c1.O=S(=O)([N-]S(=O)(=O)C(F)(F)F)C(F)(F)F | 3.1 ± 0.2 | – | 3.3 ± 0.2
5 | O [water] + CCCC[n+]1ccn(C)c1.O=S(=O)([N-]S(=O)(=O)C(F)(F)F)C(F)(F)F | 2.6 ± 0.2 | – | –
6 | O [water] + C[n+]1ccn(CCCC#N)c1.O=S(=O)([N-]S(=O)(=O)C(F)(F)F)C(F)(F)F | 1.8 ± 0.1 | – | –
